The target of one test is hASK1 (Homo sapiens (Human), UniProt Q99683). Kind of test: ASK1 biochemical assay (IMAP technology). The settings on record: 150 μM ATP, 6 nM hASK1. The source says:
(§1) IMAP® technology provides a homogeneous assay applicable to a wide variety of kinases, phosphatases, and phosphodiesterases without regard for substrate peptide sequence. The assay is a simple mix-and-read procedure allowing accurate determination of enzyme activity. Based on the specific, high-affinity interaction of phospho groups with trivalent metal-containing nanoparticles (beads), IMAP is a generic, non-antibody-based platform to assess kinase, phosphatase, and phosphodiesterase activity. An enzyme reaction is performed using fluorescently labeled substrate. Addition of the IMAP Binding System stops the enzyme reaction and initiates binding of the beads to phosphorylated substrates. Binding of the substrate to the beads, which correlates to enzyme activity, can be detected using either FP or TR-FRET as a readout.
Apoptosis Signal-regulating Kinase (ASK1), also known as MAP3K5, is a member of the mitogen-activated protein kinase kinase kinase (MAP3K) family of kinases. It activates the Jnk and p38 pathways through the MAP2Ks MKK4/7 and MKK3/6 (respectively). This ASK1 IMAP assay uses the following IMAP peptide: RP7140-T2 (5TAMRA-GTFRAAIRRLAARRR-OH, SEQ ID NO: 1). The assay has been configured to run at Km for ATP ([…]) so that it will be sensitive to ATP-competitive inhibitors. The final assay conditions are […], 1 mM DTT, 200 nM peptide and 6 nM ASK1 (total protein). The binding reagent is made up in 100% A at a final dilution of 1:200.
(§2) KIT IMAP FP, Cat. No. R8127; Reaction Buffer-Tween (5× conc.), Molecular Devices, Cat. No. R7436; Diluted 1:5 with H2O and containing DTT (1 mM from 1M stock); Progressive Binding Buffer (PBB) A (5× conc.), Molecular Devices, Cat. No. R7282; Progressive Binding Reagent (PB Reagent), Molecular Devices, Cat. No. R7284; Enzyme Solution (containing 2× Ask1 in Reaction buffer); Substrate Solution (containing 2× peptide substrate in Reaction buffer, and 2×150 μM ATP in Reaction buffer); Bead Buffer (Progressive Binding Buffer A diluted 1:5 with H2O); Bead Solution (Bead Buffer containing 1:200 Progressive Binding Reagent (2×))
100 nL of test compound in 100% DMSO was added to 384-well plates. For a dose response experiment a 1 in 4 dilution of compound (25 μM top final concentration) was used. 3 μL of hASK1 (6 nM), hASK2 (25 nM) or rASK1 (15 nM) was added to each well except in the control well to which 3 μL buffer was added. 3 μL of substrate solution was added to each well and the plates were incubated for 4 h at room temperature. After which time 6 μL of IMAP™ Bead Solution (Progressive Binding Buffer A+PB Reagent; final dilution 1:100) was added to each well and spun for 1 minute at 1000 rpm. The plates were then incubated for 2 h at room temperature after which time the plates were read on a Perkin Elmer EnVision plate reader.
Calculation of IC50 data, curves and QC analysis was made by using Excel tools and GraphPadPrism software, v. 5.03. Briefly, individual concentration-effect curves are generated by plotting the logarithm of the tested concentration of tested compounds (X) vs. corresponding percent inhibition values (Y) using least squares (ordinary) fit. Up to ¼ points from high/low controls are allowed to be excluded, but only if values are >Avg.±1*SD. Fitting equation used for IC50 calculation=log(inhibitor) vs. response−Variable slope (four parameters). Calculated results: Calc 1: mP value for FP measurement=1000*(S−G*P)/(S+G*P) where S=<detector 2 or FP-BodipyTAMRA_Ex531-Em579-optimized(1) channel 2>P=<detector 1 or FP-BodipyTAMRA_Ex531-Em579-optimized(1) channel 1>G=G-factor. Gain=100. Top constrain is used only if top values are not correctly calculated.
Minimum constrained if less than −30% I or greater than 30% I. Maximum constrained if less than 70% I or greater than 130% I. Z′-Factor Target>0.4. Hill Slope range 0.5 to 5.

For test [1], the target named is T1, ASK2 (Homo sapiens (Human), UniProt O95382). The experiment in a line: ASK2 biochemical assay (IMAP technology). The settings on record: 25 nM hASK2.
Excerpt: as §1, §2
100 nL of test compound in 100% DMSO was added to 384-well plates. […] The plates were then incubated for 2 h at room temperature after which time the plates were read on a Perkin Elmer EnVision plate reader.
Calculation of IC50 data, curves and QC analysis was made by using Excel tools and GraphPadPrism software, v. […] Calculated results: Calc 1: mP value for FP measurement=1000*(S−G*P)/(S+G*P) where S=<detector 2 or FP-BodipyTAMRA_Ex531-Em579-optimized(1) channel 2>P=<detector 1 or FP-BodipyTAMRA_Ex531-Em579-optimized(1) channel 1>G=G-factor. […] Top constrain is used only if top values are not correctly calculated. […]

The target of test [2] is Full length human ASK1 protein (Homo sapiens (Human), UniProt Q99683). Kind of test: ASK1 biochemical assay (AlphaScreen technology, MKK7 phosphorylation). The settings on record: 150 μM ATP, 400 nM MKK7, 0.8 nM ASK1. The source says:
(§3) ASK1 and ASK2 biochemical activities were also quantified using AlphaScreen technology which measures the degree of phosphorylation of a protein substrate (MKK7). AlphaScreen technology is based on the binding of a substrate to two types of beads, acceptor and donor. Binding to one bead is through the tag of the substrate protein. Binding of the second bead is through phosphospecific binding of antibody to the phosphosite of the substrate. This forms a sandwich, with the acceptor and donor beads in close proximity. When the donor beads are excited by light in the 680 nm range, a singlet oxygen is released and causes emission of light from the acceptor in the 620 nm range which can be detected using a suitable plate reader.
(§4) The phosphorylation site on MKK7 (Ser271/Thr275) is then recognised by a phosphospecific antibody. The phosphospecific antibody is bound to the AlphaScreen acceptor beads through a Protein-A interaction. Phosphorylation of MKK7 by ASK1 or ASK2 subsequently facilitates the bringing together of the donor and acceptor beads into close proximity whereupon the transfer of the singlet oxygen leads to the generation of the AlphaScreen signal.
(§5) The assay was configured to run using the following conditions (final concentrations): 150 μM ATP; 400 nM MKK7; 0.8 nM ASK1 and 2 nM ASK2.
(§6) 100 nL of test compound (starting concentration 6 μM, 11 concentrations with 3 fold serial dilutions) in 100% DMSO was added to low volume 384 well plates. 2.5 μl of ASK1 or ASK2 was added to each well except in the control wells to which 2.5 μl buffer was added. 2.5 μl of MKK7 solution was added to all wells. The plate was incubated for 60 minutes at room temperature. Protein-A acceptor beads and phospho-specific antibody were incubated for 30 minutes and then 2.5 μl of Protein-A acceptor beads/phospho-specific antibody mix (2.5 μg/ml acceptor beads final concentration and 1/800 antibody final dilution) was added to each well. The plate was incubated for 30 minutes at room temperature and then 2.5 μl of GSH donor beads (10 μg/ml acceptor beads final concentration) was added to each well. The plate was incubated for a further 60 minutes at room temperature, following which the plate was read on a Perkin Elmer Enspire plate reader.
Calculation of IC50 data, curves and QC analysis were made by using Excel tools and GraphPadPrism software, v. 5.03. Briefly, individual concentration-effect curves were generated by plotting the logarithm of the tested concentration of tested compounds (X) vs. corresponding percent inhibition values (Y) using least squares (ordinary) fit. Fitting equation used for IC50 calculation=log(inhibitor) vs. response−Variable slope (four parameters).
(In general: Alpha assays give light when donor and acceptor beads are brought close together.)

In test [3] the target is T1, ASK2. The experiment in a line: ASK2 biochemical assay (AlphaScreen technology, MKK7 phosphorylation). The settings on record: 150 μM ATP, 400 nM MKK7, 2 nM ASK2.
Excerpt: as §3, §4, §5
as §6, with “The plate was incubated for 30 minutes at room temperature and then 2.5 μl of GSH donor beads (10 μg/ml acceptor beads final concentration) was added to each well.” left out, “reader. […]” for “reader.”

T1 sequence (O95382 whole entry): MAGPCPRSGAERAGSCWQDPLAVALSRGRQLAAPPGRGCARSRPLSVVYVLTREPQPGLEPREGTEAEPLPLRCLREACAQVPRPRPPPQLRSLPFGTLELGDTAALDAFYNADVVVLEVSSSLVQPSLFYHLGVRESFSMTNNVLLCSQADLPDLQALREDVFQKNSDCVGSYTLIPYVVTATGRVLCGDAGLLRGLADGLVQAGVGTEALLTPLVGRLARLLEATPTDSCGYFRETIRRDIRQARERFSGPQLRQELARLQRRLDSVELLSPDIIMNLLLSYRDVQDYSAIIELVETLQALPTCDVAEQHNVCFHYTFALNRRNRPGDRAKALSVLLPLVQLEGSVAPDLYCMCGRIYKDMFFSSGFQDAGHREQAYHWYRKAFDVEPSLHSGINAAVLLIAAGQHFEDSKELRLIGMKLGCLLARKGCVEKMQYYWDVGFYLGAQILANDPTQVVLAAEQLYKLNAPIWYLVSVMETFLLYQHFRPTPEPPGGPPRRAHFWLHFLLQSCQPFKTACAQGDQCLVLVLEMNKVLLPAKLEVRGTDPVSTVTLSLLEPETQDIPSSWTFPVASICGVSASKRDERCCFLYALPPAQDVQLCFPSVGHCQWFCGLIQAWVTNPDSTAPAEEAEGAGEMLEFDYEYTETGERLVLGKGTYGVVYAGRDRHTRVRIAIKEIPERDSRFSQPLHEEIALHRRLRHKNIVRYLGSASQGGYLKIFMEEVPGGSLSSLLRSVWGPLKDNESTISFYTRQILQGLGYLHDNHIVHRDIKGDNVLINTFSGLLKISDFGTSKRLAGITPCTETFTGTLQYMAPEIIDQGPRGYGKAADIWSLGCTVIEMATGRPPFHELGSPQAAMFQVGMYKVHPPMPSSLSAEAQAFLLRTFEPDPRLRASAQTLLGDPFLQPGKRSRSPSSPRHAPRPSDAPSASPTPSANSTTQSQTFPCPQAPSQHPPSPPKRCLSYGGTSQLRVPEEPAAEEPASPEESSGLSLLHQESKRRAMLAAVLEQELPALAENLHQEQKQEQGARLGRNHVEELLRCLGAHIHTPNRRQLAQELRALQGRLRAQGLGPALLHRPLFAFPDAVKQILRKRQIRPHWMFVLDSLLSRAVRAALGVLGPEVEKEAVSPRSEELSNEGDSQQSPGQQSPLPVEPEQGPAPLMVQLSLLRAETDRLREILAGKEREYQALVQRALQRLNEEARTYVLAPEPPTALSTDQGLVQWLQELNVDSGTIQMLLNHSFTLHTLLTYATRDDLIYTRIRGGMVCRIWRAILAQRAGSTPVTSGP
Full length human ASK1 protein, sequence (Q99683 whole entry): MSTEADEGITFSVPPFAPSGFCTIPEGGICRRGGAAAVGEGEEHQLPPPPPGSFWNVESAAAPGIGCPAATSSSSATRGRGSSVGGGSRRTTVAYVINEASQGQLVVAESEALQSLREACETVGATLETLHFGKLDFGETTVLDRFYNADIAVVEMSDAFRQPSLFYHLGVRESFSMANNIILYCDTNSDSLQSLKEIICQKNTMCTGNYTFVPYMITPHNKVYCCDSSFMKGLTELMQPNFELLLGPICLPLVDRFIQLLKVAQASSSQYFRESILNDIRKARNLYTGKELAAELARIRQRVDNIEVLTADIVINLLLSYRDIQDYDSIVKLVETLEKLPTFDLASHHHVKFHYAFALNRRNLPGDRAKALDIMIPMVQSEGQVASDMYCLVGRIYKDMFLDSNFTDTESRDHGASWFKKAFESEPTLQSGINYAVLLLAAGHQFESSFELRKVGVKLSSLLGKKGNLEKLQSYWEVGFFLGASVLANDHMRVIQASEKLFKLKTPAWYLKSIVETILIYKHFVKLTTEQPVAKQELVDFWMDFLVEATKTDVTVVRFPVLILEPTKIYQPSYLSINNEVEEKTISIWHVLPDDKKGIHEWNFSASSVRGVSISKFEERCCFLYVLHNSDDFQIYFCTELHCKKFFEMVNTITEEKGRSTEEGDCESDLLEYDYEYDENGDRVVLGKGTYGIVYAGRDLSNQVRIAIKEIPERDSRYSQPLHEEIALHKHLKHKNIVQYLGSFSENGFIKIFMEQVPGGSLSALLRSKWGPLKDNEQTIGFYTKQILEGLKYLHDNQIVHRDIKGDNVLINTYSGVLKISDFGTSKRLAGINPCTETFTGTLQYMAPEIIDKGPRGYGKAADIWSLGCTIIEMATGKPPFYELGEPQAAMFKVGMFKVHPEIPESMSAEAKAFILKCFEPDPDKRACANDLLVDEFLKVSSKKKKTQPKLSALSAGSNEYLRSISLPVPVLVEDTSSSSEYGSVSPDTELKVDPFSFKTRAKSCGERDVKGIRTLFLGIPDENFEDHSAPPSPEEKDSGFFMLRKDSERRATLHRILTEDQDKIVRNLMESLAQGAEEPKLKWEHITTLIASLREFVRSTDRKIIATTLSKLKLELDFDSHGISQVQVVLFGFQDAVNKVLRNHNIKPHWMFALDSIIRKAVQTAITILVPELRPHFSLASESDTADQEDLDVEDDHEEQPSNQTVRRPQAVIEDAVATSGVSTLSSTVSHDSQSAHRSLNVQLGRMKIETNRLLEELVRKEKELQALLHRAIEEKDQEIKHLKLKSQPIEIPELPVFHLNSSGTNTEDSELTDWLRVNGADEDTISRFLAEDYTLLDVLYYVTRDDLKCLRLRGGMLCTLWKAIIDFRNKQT
hASK1, sequence (Q99683 whole entry): as above

For `Cc1c[nH]c2ncnc(N3CCC(NC(=O)c4cc(N)ncc4F)CC3)c12` [Compound 1, 2-amino-5-fluoro-N-[1-(5-methyl-7H-pyrrolo[2,3-d]pyrimidin-4-yl)-4-piperidyl]pyridine-4-carboxamide], the “Inhibition (pIC50) ASK1” value amounted to 8.24 at hASK1 and 8.72 in test [2]. Moreover, the “Inhibition (pIC50) ASK2” value at ASK2 [1] is given as 7.96; on ASK2 [3] it was 7.71.
Consider `Cc1cnc(N)cc1C(=O)NC1CCN(c2ncnc3[nH]cc(C)c23)CC1` [Compound 2, 2-amino-5-methyl-N-[1-(5-methyl-7H-pyrrolo[2,3-d]pyrimidin-4-yl)-4-piperidyl]pyridine-4-carboxamide], for which the figures for the “Inhibition (pIC50) ASK1” value (on hASK1; in test [2]) were 8.17 and 8.9/—, respectively. On ASK2 [1], the “Inhibition (pIC50) ASK2” value was 8.08.
As to `Cc1c[nH]c2ncnc(N3CCC(NC(=O)c4cc(N)ncc4Cl)CC3)c12` [Compound 3, 2-amino-5-chloro-N-[1-(5-methyl-7H-pyrrolo[2,3-d]pyrimidin-4-yl)-4-piperidyl]-pyridine-4-carboxamide], the “Inhibition (pIC50) ASK1” value is given as 8.05/— on hASK1 and 8.7 in test [2]. Further, on ASK2 [3], the “Inhibition (pIC50) ASK2” value stood at 7.8.
On to `Nc1cc(C(=O)NC2CCN(c3ncnc4[nH]cc(Cl)c34)CC2)ccn1` [Compound 4, 2-amino-N-[1-(5-chloro-7H-pyrrolo[2,3-d]pyrimidin-4-yl)-4-piperidyl]pyridine-4-carboxamide], for which the “Inhibition (pIC50) ASK1” value was determined as 8.46 on hASK1 and 9.4 in test [2]. The entries for the “Inhibition (pIC50) ASK2” value at ASK2 [1] and at ASK2 [3] were 8.19 and 8.2, respectively.
With `Nc1cc(C(=O)NC2CCN(c3ncnc4[nH]cc(Cl)c34)CC2)c(F)cn1` [Compound 5, 2-amino-N-[1-(5-chloro-7H-pyrrolo[2,3-d]pyrimidin-4-yl)-4-piperidyl]-5-fluoro-pyridine-4-carboxamide], the “Inhibition (pIC50) ASK1” value is 8.43/— on hASK1 and 8.8/— in test [2].
On the same counts, the results for `Cc1c[nH]c2ncc(C#N)c(N3CCC(NC(=O)c4cc(N)ncc4F)CC3)c12` [Compound 6, 2-amino-N-[1-(5-cyano-3-methyl-1H-pyrrolo[2,3-b]pyridin-4-yl)-4-piperidyl]-5-fluoro-pyridine-4-carboxamide] are 8.98/— and 8.98/—^.
Taken in the same sequence, the figures for `Nc1cc(C(=O)NC2CCN(c3ccnc4[nH]cc(Cl)c34)CC2)c(F)cn1` [Compound 7, 2-amino-N-[1-(3-chloro-1H-pyrrolo[2,3-b]pyridin-4-yl)-4-piperidyl]-5-fluoro-pyridine-4-carboxamide] were 8.24/— and 8.24/—^.

The record behind these values is patent publication US11136325B2, “Pyrrolopyrimidine and pyrrolopyridine derivatives” (GALAPAGOS NV, priority 2017, dated 2021).
